Data as given in the NIST ThermoML archive (doi:10.1016/j.jct.2015.01.007).

Settings: for molar entropy: 101.33 kPa

O=P([O-])([O-])[O-].[Fe+2].[Li+] [iron(II) lithium phosphate]
molar entropy [J/K/mol]
Settings | Crystal 1, combination of DSC and relaxation calorimetry | Crystal 2, relaxation calorimetry
5 K | – | 0.0577
10 K | – | 0.1645
15 K | – | 0.5534
20 K | – | 1.241
25 K | – | 2.309
30 K | – | 3.785
35 K | – | 5.708
40 K | – | 8.078
42 K | – | 9.158
45 K | – | 10.96
46 K | – | 11.63
47 K | – | 12.33
48 K | – | 13.07
49 K | – | 13.86
49.24 K | 14.06 | 14.06
50 K | 14.7 | –
51 K | 15.21 | –
52 K | 15.67 | –
53 K | 16.11 | –
54 K | 16.53 | –
55 K | 16.95 | –
60 K | 19.01 | –
65 K | 21.09 | –
70 K | 23.23 | –
80 K | 27.71 | –
90 K | 32.41 | –
100 K | 37.27 | –
110 K | 42.25 | –
120 K | 47.28 | –
130 K | 52.34 | –
140 K | 57.41 | –
150 K | 62.46 | –
160 K | 67.48 | –
170 K | 72.46 | –
180 K | 77.39 | –
190 K | 82.26 | –
200 K | 87.07 | –
210 K | 91.83 | –
220 K | 96.51 | –
230 K | 101.1 | –
240 K | 105.7 | –
250 K | 110.2 | –
260 K | 114.6 | –
270 K | 119 | –
280 K | 123.3 | –
290 K | 127.5 | –
298.15 K | 130.9 | –
300 K | 131.7 | –
320 K | 139.9 | –
340 K | 147.9 | –
360 K | 155.6 | –
380 K | 163.1 | –
400 K | 170.5 | –
420 K | 177.6 | –
440 K | 184.6 | –
460 K | 191.4 | –
480 K | 198 | –
500 K | 204.4 | –
520 K | 210.8 | –
540 K | 216.9 | –
560 K | 223 | –
580 K | 228.9 | –
600 K | 234.6 | –
620 K | 240.3 | –
640 K | 245.8 | –
660 K | 251.2 | –
680 K | 256.5 | –
700 K | 261.8 | –
720 K | 266.9 | –
740 K | 271.9 | –
760 K | 276.8 | –

Settings | Triple point temperature [K]
Crystal 2, Relaxation calorimeter | 49.24
